Reference: patent US9040671B2, “Methods for cancer management targeting Co-029” (Institut National de la Sante et de la Recherche Medicale …, priority 2010, dated 2015)

Columns and labels:
p120-catenin = experiment: Flow cytometry of p120-catenin in permeabilized cells after RNA silencing; assay type: cell-based, human; details: Is1-Co029 cells on collagen I, 48 hours after silencing
Procedure: For intracellular cytometry, cells were detached using trypsin or scrapped in PBS (4° C.) then fixed for 20 min at 4° C. with 1% formaldehyde in PBS. After centrifugation, cells were incubated in methanol 100% for 10 min at −20° C. then washed in PBS and stained with 10 μg/ml of primary antibody. After washes in PBS, cells were incubated with 10 μg ml FITC-labelled secondary antibody (Beckman Coulter), washed again three times and immediately analysed.
(§1) RNA silencing. Cells (1-3×10^5 cells in DMEM medium) were reverse transfected with synthetic si-RNA oligonucleotides using Interferrin (Ozyme) according to manufacturer's protocol.
(§2) 6, 12 or 24 well cell culture plates were coated with rat tail collagen I. Plates were rinsed in PBS. One μl of the siRNA (10 μM) oligonucleotide mix was added to 96 μl DMEM without serum and 3-5 μl Interferrin and incubated at room temperature in each well during 20 min to allow formation of transfection complexes. Cells detached by trypsin-EDTA were layered at appropriate concentration in 400 μlDMEM medium with serum (the final concentration of si-RNA was 20 nM).

E-cadherin = experiment: Flow cytometry of surface E-cadherin after RNA silencing; assay type: cell-based, human; details: Is1-Co029 cells cultured on collagen I
Procedure: Immunofluorescence. For flow cytometry analysis of cell surface molecules, cells were detached using a non-enzymatic solution (Invitrogen), washed and stained with 10 μg/ml of primary antibody. After washes in culture medium, cells were incubated with 10 μg/ml-1 FITC-labelled secondary antibody (Beckman Coulter), washed again three times and fixed with 1% formaldehyde in PBS. All incubations were performed for 30 min at 4° C. Analysis of cell-surface staining was performed using a FACScalibur flow cytometer (Becton-Dickinson, San Jose, Calif., USA).
as §1, §2

Is1-Co029 cells = experiment: 2D cell motility on collagen I by videomicroscopy, Is1-Co029 cells; assay type: cell-based, human
Procedure: Cells and cell culture. The cell lines Isreco1, Isreco2 and Isreco3 were initially derived from a primary human colon cancer surgical specimen (Isreco1)(Duke's C, class III) and its corresponding liver and peritoneal metastases (Cajot et al., 1997). These cells were cultured in Dulbecco's modified Eagle's medium (DMEM) supplemented with 10% FCS, glutamax and antibiotics (all from Invitrogen). For experiments, tissue culture plastics were coated with rat tail Collagen I (BD Biosciences) for 1 hour at 50 μg/ml and rinsed with PBS.
Construction of the Co-029 and CD81 lentiviral vector and transduction of Isreco1 cells. Since Isreco1 cells were not efficiently transfected by using non retroviral methods we constructed the TRIPΔ3-EF1α-Co029 and TRIPΔ3-EF1α-CD81 plasmids by inserting the human Co029 and the human CD81 cDNA coding sequence in TRIPΔ3-EF1α vectors. […]. Is1-Co029 and Is1-CD81 cells were obtained by transducing Isrecol cells twice with concentrated lentiviral particles. Is1-Co029low cells were obtained following a single transduction.
Videomicroscopy. Analysis of 2D cell motility on collagen I films was performed using phase contrast on an inverted microscope (Axiovert 200; Zeiss,Oberkochen, Germany) equipped with an environmental chamber with 5% CO2 in air at 37° C. The microscope was driven by the Metamorph software (Roper Scientific),and images were recorded with a Coolsnap HQ camera (Roper Scientific). Stacks of phase contrast images were collected every 15 min for 24 h at ×200 magnification. Cell migration was quantified using the manual tracking plugin of ImageJ (Rasband, 2007) Raw data were transfered to Excel for speed calculations and statistical analysis was performed by the non parametric Mann-Whitney test in Graphpad. For each position at least 10 cells were analyzed. Experiments were repeated from 2 to 10 times to verify the robustness of the results and the stability of the measurements.
For silencing experiments, motility measures were performed 48 hours after RNAi treatments. […]

Is1-Co029 tumor cells = experiment: Effect of antiCo-029 antibodies on subcutaneous tumor growth; assay type: in vivo, mice; details: 1 mg i.p. biweekly; for Tumor growth inhibition (T/C %): vs PBS control
Procedure: Effect of antiCo-029 antibodies on subcutaneous tumor growth. In order to realize the animal experiments, a large amounts of purified mAbs was prepared. The yield of mAb TS29.2 (IgG2b) was of approximately 5 mg purified mAb/ml ascitis. Mice produce a mean of 10 ml ascitis/mouse.
Ascitis were clarified by centrifugation and 0.45 μm filtered. The mAbs were purified by using the Biosepra MEP HyperCel* Hydrophobic Charge Induction Chromatography (HCIC) Sorbent, dialysed against PBS and the purity checked by gel electrophoresis and Coomassie Blue coloration. Fractions were aliquoted and frozen at −20° C.
The effect of the antibodies on tumor growth was evaluated by subcutaneous implantation of tumor cells issued from colon carcinoma cell lines, followed by repeated injections of monoclonal antibodies with appropriate controls.
Ten Nude mice were injected subcutaneously with 10^7 Is1-Co029 tumor cells and divided in two groups, antibody treated and PBS control. Each group received an i.p. injection of either 1 mg Ts29.2 or the same volume of PBS and biweekly subsequent injections of 1 mg Ts29.2 or PBS i.p., for a total of nine injections. The size of the tumor was determined by the formula (π/6×length×width×thickness).
Tumor growth inhibition (T/C %) was defined as the ratio of the median tumor volume for the treated vs. control group. It will be calculated as T/C %=[(median tumor volume of treated group at day X)/(median tumor volume of control group at day X)]×100.

For “si-p120: si-RNA to p120ctn; si-p120a GCCAGAGGUGGUUCGGAUAdTdT (SEQ ID NO: 20) used throughout the study (listed as RNA, chemistry not fully specified)”, the “reduction of the amount of p120ctn” value (p120-catenin) was 80% and the “reduction of surface E-cadherin” value (E-cadherin) was 50%.

“si-RhoA: si-RNA to RhoA, GAACUAUGUGGCAGAUAUCdTdT (SEQ ID NO: 23), Dharmacon (listed as RNA, chemistry not fully specified) [reference compound]” was tested, and the “effect on motility of Is1-Co029 cells, in words” value (Is1-Co029 cells; sparse cells on collagen I, agent alone) was “same effect on motility as p120-catenin silencing”.

In the case of “si-Co029: si-RNA to Co-029, GGUAUCCUAGGAGCUGUUUdTdT (SEQ ID NO: 10) (listed as RNA, chemistry not fully specified)”, the “effect on the acceleration of Is1-Co029 cells induced by si-p120, in words” value (Is1-Co029 cells; cells silenced for p120ctn) is reported as “reversed” and the “effect on the increased motility induced by si-Ecad, in words” value (Is1-Co029 cells; co-silencing with si-Ecad) is reported as “suppressed”.

B1: Ts29.2: murine monoclonal antibody against Co-029 obtainable from hybridoma CNCM I-4047; VH SEQ ID NO: 1, VL SEQ ID NO: 5 (antibody, V domains shown)
VH: EVKVVESGGGLVQPGGSLRLSCATSGFTFTDYYMSWVRQPPGKALEWLGFIRNRVSGYTTEYSASVQGRFTISRDNSQSILYLQMNTLRAEDSATYYCARDHYGNFAMDYWGQGTSVTVSS
VL: DIQMTQSSSSFSVSLGDRVTITCKASEDIYNRLAWYQQKPGNAPRLLISGATSLETGVPSRFSGSGSGKDYTLSITSLQTEDVASYYCQQYWSTPFTFGSGTKLEIK
modifications: Synthetic VH; Synthetic VL
B1 was tested, and the “growth of Is1-Co029 cells (subcutaneous tumor), in words” value (Is1-Co029 tumor cells; Nude mice) was “inhibits significantly”, the “Tumor growth inhibition (T/C %)” value (Is1-Co029 tumor cells; day 43 (J43), nine injections) was 36% and the “Tumor growth inhibition (T/C %)” value (Is1-Co029 tumor cells; day 50 (J50), nine injections) was 35%. For the same molecule, the mean tumor size (Is1-Co029 tumor cells; day 50, nine injections, PBS control 557±141.6) was 195.7±47.7 mm^3.
